In patent publication US8618162B2 (priority 2007, dated 2013):
pIC50: −log10 of the molar value. Where two headings read alike, the source gives them in different places.

Tests used:
[1] = biological target: T1, Ag hmg AChE (Anopheles gambiae, UniProt Q869C3); assay: Ellman AChE inhibition assay, Anopheles gambiae homogenate (Ag hmg); assay type: biochemical; settings: for pIC50: pH 7.8, 10 min preincubation; for Human/Ag IC50 ratio (selectivity for AgAChE over hAChE): range over the two AgAChE sources (Ag hmg, Ag ace-1S)
T1 construct: To prepare the Ag homogenate (Ag hmg) 10 Anopheles gambiae mosquitoes were combined; from tissue; host or cells: whole Anopheles gambiae mosquitoes, crude homogenate supernatant

[2] = biological target: T2, hAChE (Homo sapiens, UniProt P22303); assay: Ellman AChE inhibition assay, recombinant hAChE; assay type: biochemical
T2 construct: purchased Sigma C1682

[3] = biological target: T3, Ag ace-1S (Anopheles gambiae, UniProt Q869C3); assay: biochemical
T3 construct: encoding the entire wild type AgAChE protein (ace1, 737 amino acids); made in house; host or cells: Drosophila S2 cells (stably transfected, pMT/V5-His vector), clarified cell lysate

[4] = system: Anopheles gambiae; assay: Live mosquito contact toxicity, WHO filter paper assay; assay type: in vivo; settings: for Live Mosquito Contact Toxicity MC for 100% lethality at 24 hr: 1 hr exposure to treated filter paper
[5] = WT Anopheles gambiae homogenate, read-out: Ag WT hmg IC50
[6] = pH 7.8, 10 min preincubation, read-out: hAChE recomb. IC50
[7] = Ag WT hmg IC50, WT Anopheles gambiae homogenate

T1 sequence (Q869C3 39-737): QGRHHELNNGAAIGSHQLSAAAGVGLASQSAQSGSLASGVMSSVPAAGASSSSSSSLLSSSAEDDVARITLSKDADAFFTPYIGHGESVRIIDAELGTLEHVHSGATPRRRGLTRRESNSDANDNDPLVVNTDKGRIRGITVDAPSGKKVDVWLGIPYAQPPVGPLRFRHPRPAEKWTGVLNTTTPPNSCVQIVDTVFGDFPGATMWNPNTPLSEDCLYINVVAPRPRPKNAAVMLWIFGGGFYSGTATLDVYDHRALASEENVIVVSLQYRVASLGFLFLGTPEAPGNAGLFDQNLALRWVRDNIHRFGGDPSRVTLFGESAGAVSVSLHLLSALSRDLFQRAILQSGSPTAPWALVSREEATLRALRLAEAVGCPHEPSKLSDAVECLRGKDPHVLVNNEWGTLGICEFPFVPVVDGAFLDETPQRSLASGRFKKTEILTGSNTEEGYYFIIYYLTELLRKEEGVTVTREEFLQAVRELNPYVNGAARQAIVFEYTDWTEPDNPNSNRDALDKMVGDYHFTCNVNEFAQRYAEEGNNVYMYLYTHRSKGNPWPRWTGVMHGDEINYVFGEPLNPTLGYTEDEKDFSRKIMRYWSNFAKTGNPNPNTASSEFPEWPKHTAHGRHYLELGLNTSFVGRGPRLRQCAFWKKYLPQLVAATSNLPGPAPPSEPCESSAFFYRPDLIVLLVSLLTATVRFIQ
T3 sequence (Q869C3 39-737): as above
T2 sequence (P22303 32-614): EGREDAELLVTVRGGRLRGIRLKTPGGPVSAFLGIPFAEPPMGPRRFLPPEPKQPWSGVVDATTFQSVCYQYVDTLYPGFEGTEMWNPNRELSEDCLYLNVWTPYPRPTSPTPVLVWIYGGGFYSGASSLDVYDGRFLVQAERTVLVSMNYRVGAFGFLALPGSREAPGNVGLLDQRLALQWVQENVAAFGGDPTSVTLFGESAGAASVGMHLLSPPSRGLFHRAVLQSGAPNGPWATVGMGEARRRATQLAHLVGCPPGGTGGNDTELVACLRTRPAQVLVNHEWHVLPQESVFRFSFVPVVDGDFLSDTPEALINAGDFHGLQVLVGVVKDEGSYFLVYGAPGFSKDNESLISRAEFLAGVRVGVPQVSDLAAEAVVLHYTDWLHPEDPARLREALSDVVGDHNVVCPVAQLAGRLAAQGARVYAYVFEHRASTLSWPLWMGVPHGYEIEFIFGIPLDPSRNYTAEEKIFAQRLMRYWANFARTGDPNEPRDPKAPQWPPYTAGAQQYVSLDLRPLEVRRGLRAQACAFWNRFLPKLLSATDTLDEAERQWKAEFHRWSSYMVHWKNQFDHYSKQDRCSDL

Compound	pIC50 [3]	lethality at 24 h ([4]; at 11 ug/cm^2, 1 hr exposure)	pIC50 [1, 7]	pIC50 [2]	also measured
CNC(=O)Oc1cccc2c1OC(C)(C)C2 [Carbofuran, reference compound]	7.31				pIC50 [1, 5]: 7.66; pIC50 [2, 6]: 7.21
CCCCN(CCCC)SN(C)C(=O)Oc1cccc2c1OC(C)(C)C2 [Carbosulfan, reference compound]	4.96				pIC50 [1, 5]: 5.39; pIC50 [2, 6]: 5.23
CCC(CC)CSc1ccccc1OC(=O)NC [Compound 1b, 2-(2-ethylbutylthio)phenyl-N-methylcarbamate]	8.54	27% at 11	8.52	5.44	Human/Ag IC50 ratio (selectivity for AgAChE over hAChE) [1]: 1200 fold
CCCCCCNC(=O)Oc1cccc(C(C)(C)C)c1 [Compound 1c]		13% lethal at 11	< 4.00	6.16	
CC(C)NC(=O)Oc1cccc(C(C)(C)C)c1 [Compound 1d, N-isopropyl-3-tert-butylphenylcarbamate]			3.27	3.74	
C#CCNC(=O)Oc1cccc(C(C)(C)C)c1 [Compound 1e, N-propargyl 3-t-butylphenyl carbamate]			6.47	6.69	Live Mosquito Contact Toxicity MC for 100% lethality at 24 hr [4]: 56 ug/cm^2
CC(C)(C)c1cccc(OC(=O)NCc2cn(Cc3ccccc3)nn2)c1 [Compound 1f, N-(1-benzyl-1H-1,2,3-triazol-4-yl)methyl 3-t-butylphenyl carbamate]			< 5.00	< 5.00	Live Mosquito Contact Toxicity MC for 100% lethality at 24 hr [4]: 56 ug/cm^2
CN(C)C(=O)Oc1cccc(C(C)(C)C)c1 [Compound 1g]		20% lethal at 11	5.23	5.39	
CCNC(=O)Oc1cccc(C(C)(C)C)c1 [Compound 1h]			5.40	5.62	Live Mosquito Contact Toxicity MC for 100% lethality at 24 hr [4]: 11 ug/cm^2
CCC(CC)COc1ccccc1OC(=O)NC [Compound 2b, 2-(2-ethylbutoxy)phenyl-N-methylcarbamate]	8.00	27%	7.16	4.01	lethality at 24 h, +PBO ([4]; at 11 ug/cm^2, +PBO): 53%; Human/Ag IC50 ratio (selectivity for AgAChE over hAChE) [1]: 1,400-9.900 fold
CCC(CC)C[S+]([O-])c1ccccc1OC(=O)NC (centres unmarked) [Compound 3b, 2-(2-ethylbutylsulfinyl)phenyl-N-methylcarbamate]		0% at 11	4.29	4.26	
CCC(C)CSc1ccccc1OC(=O)NC (centres unmarked) [Compound 4b, 2-(2-methylbutylthio)phenyl-N-methylcarbamate]	7.57	70% at 11	7.52	5.45	
CNC(=O)Oc1ccccc1SC(C)C [Compound 5b, 2-(isopropylthio)phenyl-N-methylcarbamate]			7.48	6.03	Live Mosquito Contact Toxicity MC for 100% lethality at 24 hr [4]: 2.8 ug/cm^2
CNC(=O)Oc1ccccc1SCC(C)C [Compound 6b, 2-(isobutylthio)phenyl-N-methylcarbamate]			6.96	5.09	Live Mosquito Contact Toxicity MC for 100% lethality at 24 hr [4]: 11 ug/cm^2; Human/Ag IC50 ratio (selectivity for AgAChE over hAChE) [1]: 74 fold
CNC(=O)Oc1ccccc1SCC(C)(C)C [Compound 7b, 2-(neopentylthio)phenyl-N-methylcarbamate]	6.54	33% at 11	6.14	4.86	
C=C(C)CSc1ccccc1OC(=O)NC [Compound 8b, 2-(2-methylallylthio)phenyl-N-methylcarbamate]	6.78		6.91	5.02	Live Mosquito Contact Toxicity MC for 100% lethality at 24 hr [4]: 2.8 ug/cm^2

Compound	pIC50 [3]	lethality at 24 h ([4]; at 11 ug/cm^2, 1 hr exposure)	pIC50 [1, 7]	pIC50 [2]	also measured
C=C(C)CSc1ccccc1OC(=O)NCC [Compound 8c, 2-(3-thio-2-methylpropenyl)phenyl-N-ethylcarbamate]		None at 11	4.89	4.27	
C=C(C)CSc1ccccc1OC(=O)NCCCCCC [Compound 8d, 2-(3-thio-2-methylpropenyl)phenyl-N-hexylcarbamate]		None at 11	< 4.00	5.16	
C=C(C)CSc1ccccc1OC(=O)N(C)C [Compound 8e, 2-(3-thio-2-methylpropenyl)phenyl-N,N-dimethylcarbamate]		None at 11	5.24	4.99	
CNC(=O)Oc1ccccc1SCC1CCCCC1 [Compound 9b, 2-(cyclohexylmethylthio)phenyl-N-methylcarbamate]			4.76	4.97	
CNC(=O)Oc1ccccc1OCC1CCCCC1 [Compound 10b, 2-(cyclohexylmethoxy)phenyl-N-methylcarbamate]			< 4.00	< 4.00	
CNC(=O)Oc1ccccc1SCC1CCCC1 [Compound 11b, 2-(cyclopentylmethylthio)phenyl-N-methylcarbamate]	6.41		5.97	5.16	
CNC(=O)Oc1ccccc1OCC1CCCC1 [Compound 12b, 2-(cyclopentylmethoxy)phenyl-N-methylcarbamate]			4.61	< 4.00	
CNC(=O)Oc1cccc(-c2cn(Cc3ccccc3)nn2)c1 [Compound 13a, N-methyl 3-(1-benzyl-1H-1,2,3-triazol-4-yl)phenyl carbamate]		None at 11	3.47	< 4.00	
CNC(=O)Oc1ccccc1OCC(C)C [Compound 13b, 2-isobutoxyphenyl-N-methylcarbamate]	6.19		5.69	4.17	lethality at 24 h ([4]; at 2.8 ug/cm^2, 1 hr exposure): 100% at 2.8
C=C(Cl)CSc1ccccc1OC(=O)NC [Compound 14b, 2-(2-chloroallylthio)phenyl-N-methylcarbamate]	6.58		6.94	5.51	Live Mosquito Contact Toxicity MC for 100% lethality at 24 hr [4]: 11 ug/cm^2
C=C(Br)CSc1ccccc1OC(=O)NC [Compound 15b, 2-(2-bromoallylthio)phenyl-N-methylcarbamate]	6.76		6.61	5.78	lethality at 24 h ([4]; at 56 ug/cm^2, 1 hr exposure): 93% lethal at 56
C=CCSc1ccccc1OC(=O)NC [Compound 16b, 2-(allylthio)phenyl-N-methylcarbamate]	7.44		6.81	5.80	Live Mosquito Contact Toxicity MC for 100% lethality at 24 hr [4]: 5.6 ug/cm^2
C/C=C/CSc1ccccc1OC(=O)NC [Compound 17b, (E)-2-(but-2-enylthio)phenyl-N-methylcarbamate]	7.17		7.24	6.31	lethality at 24 h ([4]; at 5.6 ug/cm^2, 1 hr exposure): 93% lethal at 5.6
CNC(=O)Oc1ccccc1SCC=C(C)C [Compound 18b, 2-(3-methylbut-2-enylthio)phenyl-N-methylcarbamate]	6.39		5.93	5.57	Live Mosquito Contact Toxicity MC for 100% lethality at 24 hr [4]: 56 ug/cm^2
CNC(=O)Oc1ccccc1SCc1ccccc1 [Compound 19b, 2-(benzylthio)phenyl-N-methylcarbamate]	5.42		5.16	4.81	
C=C(C)COc1ccccc1OC(=O)NC [Compound 20b, 2-(2-methylallyloxy)phenyl-N-methylcarbamate]		93% lethality at 11	5.82	4.16	
